{"source": "patent US8183263B2", "about": "(priority 2007, dated 2012)", "data": [{"system": "HCV replicon", "assay": "HCV replicon replication assay (NPT level by captured ELISA)", "assay_type": "cell-based", "conditions": "Hepatitis C virus, 72 h; Huh-7 HCV replicon-containing cells, three days incubation; read-out: Activity (inhibition of HCV replicon replication)", "description": "Compounds claimed herein are tested for the ability to inhibit viral replication of the Hepatitis C replicon in cultured cells in which the HCV replicon construct has been incorporated. The HCV replicon system was described by Bartenschlager, et. al (Science, 285, pp. 110-113 (1999)). The replicon system is predictive of in vivo anti-HCV activity; compounds that are active in humans uniformly evidence activity in the replicon assay.\nIn this assay HCV replicon containing cells are treated with different concentrations of the test compound to ascertain the ability of the test compound to suppress replication of the HCV replicon. As a positive control, HCV replicon-containing cells are treated with different concentrations of interferon alpha, a known inhibitor of HCV replication. The replicon assay system includes Neomycin Phosphotransferase (NPT) as a component of the replicon itself in order to detect the transcription of replicon gene products in the host cell. Cells in which the HCV replicon is actively replicating have high levels of NPT; the level of NPT is proportional to HCV replication. […] The NPT level of each sample is measured using a captured ELISA.\nA protocol for testing compounds for the ability to inhibit viral replication of the Hepatitis C replicon cultured cells in which the replicon construct has been incorporated, follows.\nThe HCV replicon contains, 5′-3′, the HCV-IRES, the neomycin phosphotransferase (neo) gene, the IRES of encephalomyocarditis virus, which directs translation of HCV sequences NS3 to NS5B, and the 3′-NTR. The sequence of the HCV replicon has been deposited in GenBank (Accession no. AJ242652).\nThe replicon is transfected into Huh-7 cells using standard methods such as electroporation.\nThe equipment and materials include, but are not limited to, Huh-7 HCV replicon-containing cells, maintenance media (DMEM (Dulbecco's modified Eagle media) supplemented with 10% FBS, L-glutamine, non-essential amino acids, penicillin (100 units/ml), streptomycin (100 micrograms/ml), and 500 micrograms/ml of Geneticin (G418), screening media (DMEM supplemented with 10% FBS, L-glutamine, non-essential amino acids, penicillin (100 units/ml) and streptomycin (100 micrograms/ml)), 96 well tissue culture plates (flat bottom), 96 well plates (U bottom for drug dilution), Interferon alpha for positive control, fixation reagent (such as methanol: acetone), primary antibody (rabbit anti-NPTII), secondary antibody: Eu—N1 1, and enhancement solution.\nHCV replicon-containing cells are rinsed with once PBS once; 2 mls of trypsin are then added. Cells are incubated at 37° C. in a 5% CO2 incubator for 3-5 minutes. 10 mls of complete medium is added to stop the reaction. Cells are blown gently, put into a 15 ml tube, and spun at 1200 rpm for four minutes. The trypsin/medium solution is removed and 5 mls of medium (500 ml DMEM (high glucose)) from BRL catalog #12430-054; 50 mls 10% FBS, 5% Geneticin G418 (50 mg/ml, BRL catalog #10131-035), 5 ml MEM non-essential amino acids (100×BRL #11140-050) and 5 ml pen-strep (BRL #15140-148) is added. The cells and media are mixed carefully\nCells are plated with screening medium (500 ml DMEM (BRL #21063-029), 50 ml FBS (BRL #10082-147) and 5 ml MEM non-essential amino acid (BRL #11140-050) at 6000-7500 cells/100 μl/well of 96 well plate (6-7.5×10^5 cells/10 ml/plate). Plates are placed into 37° C. 5% CO2 incubator overnight.\nThe following morning, drugs (test compounds or interferon alpha) are diluted in 96 well U bottom plates with media or DMSO/media, depending on the final concentration chosen for screening. Generally for 6 concentrations of each test compounds ranging from 10 micromolar to 0.03 micromolar are applied. 100 μl of the test compound dilution is placed in wells of the 96 well plate containing the HCV replicon cells. Media without drug is added to some wells as a negative controls. DMSO is known to affect cell growth. […]", "units": {"EC50": "nM"}, "values": [{"smiles": "COc1ncc(-c2csc(Nc3ccc(Oc4ccc(Cl)cc4)c(C(F)(F)F)c3)n2)cn1", "note": "[Cmp 54, N-(4-(4-chlorophenoxy)-3-(trifluoromethyl)phenyl)-4-(2-methoxypyrimidin-5-yl)thiazol-2-amine]", "EC50": "< 1000"}, {"smiles": "CCCCCc1nc2cc(Nc3nc(-c4cnc(OC)nc4)cs3)ccc2o1", "note": "[Cmp 55, N-(4-(2-methoxypyrimidin-5-yl)thiazol-2-yl)-2-pentylbenzo[d]oxazol-5-amine]", "EC50": "< 1000"}, {"smiles": "CCCCCc1nc2cc(Nc3nc(-c4cnc(OC)nc4)c(F)s3)ccc2o1", "note": "[Cmp 56, N-(5-fluoro-4-(2-methoxypyrimidin-5-yl)thiazol-2-yl)-2-pentylbenzo[d]oxazol-5-amine]", "EC50": "< 1000"}, {"smiles": "CCCCCCCc1nc2cc(Nc3nc(-c4cnc(OC)nc4)c(F)s3)ccc2o1", "note": "[Cmp 57, N-(5-fluoro-4-(2-methoxypyrimidin-5-yl)thiazol-2-yl)-2-heptylbenzo[d]oxazol-5-amine]", "EC50": "< 1000"}, {"smiles": "Cc1ccc(Nc2nc(-c3cccnc3)c(F)s2)cc1OCCOc1ccccc1", "note": "[Cmp 58, 5-fluoro-N-(4-methyl-3-(2-phenoxyethoxy)phenyl)-4-(pyridin-3-yl)thiazol-2-amine]", "EC50": "< 1000"}, {"smiles": "Cc1ccc(Nc2nc(-c3cccnc3)c(F)s2)cc1OCC1CCCCC1", "note": "[Cmp 59, N-(3-(cyclohexylmethoxy)-4-methylphenyl)-5-fluoro-4-(pyridin-3-yl)thiazol-2-amine]", "EC50": "< 1000"}, {"smiles": "Cc1ccc(Nc2nc(-c3ccc(F)cc3)c(F)s2)cc1OCCOc1ccccc1", "note": "[Cmp 60, 5-fluoro-4-(4-fluorophenyl)-N-(4-methyl-3-(2-phenoxyethoxy)phenyl)thiazol-2-amine]", "EC50": "< 1000"}, {"smiles": "Cc1ccc(Nc2nc(-c3ccc(F)cc3)c(F)s2)cc1OCC1CCCCC1", "note": "[Cmp 61, N-(3-(cyclohexylmethoxy)-4-methylphenyl)-5-fluoro-4-(4-fluorophenyl)thiazol-2-amine]", "EC50": "< 1000"}, {"smiles": "CCCCCCCCOc1cc(Nc2nc(-c3ccc(F)cc3)c(F)s2)ccc1C", "note": "[Cmp 62, 5-fluoro-4-(4-fluorophenyl)-N-(4-methyl-3-(octyloxy)phenyl)thiazol-2-amine]", "EC50": "< 1000"}, {"smiles": "COc1ncc(-c2nc(Nc3ccc(C)c(OCC4CCCCC4)c3)sc2F)cn1", "note": "[Cmp 63, N-(3-(cyclohexylmethoxy)-4-methylphenyl)-5-fluoro-4-(2-methoxypyrimidin-5-yl)thiazol-2-amine]", "EC50": "< 1000"}, {"smiles": "CCCCCc1nc2cc(Nc3nc(-c4cccnc4)cs3)ccc2o1", "note": "[Cmp 64]", "EC50": "< 1000"}, {"smiles": "CCCCCc1nc2cc(Nc3nc(-c4cccnc4)c(F)s3)ccc2o1", "note": "[Cmp 65, N-(5-fluoro-4-(pyridin-3-yl)thiazol-2-yl)-2-pentylbenzo[d]oxazol-5-amine]", "EC50": "< 1000"}, {"smiles": "CCCCCc1nc2ccc(Nc3nc(-c4cccnc4)cs3)cc2o1", "note": "[Cmp 66, 2-pentyl-N-(4-(pyridin-3-yl)thiazol-2-yl)benzo[d]oxazol-6-amine]", "EC50": "< 1000"}, {"smiles": "CCCCCc1nc2ccc(Nc3nc(-c4cccnc4)c(F)s3)cc2o1", "note": "[Cmp 67, N-(5-fluoro-4-(pyridin-3-yl)thiazol-2-yl)-2-pentylbenzo[d]oxazol-6-amine]", "EC50": "< 1000"}, {"smiles": "CCCCCCCCOc1cc(Nc2nc(-c3cccnc3)cs2)ccc1C(F)(F)F", "note": "[Cmp 68, N-(3-(octyloxy)-4-(trifluoromethyl)phenyl)-4-(pyridin-3-yl)thiazol-2-amine]", "EC50": "< 1000"}, {"smiles": "CCCCCOc1cc(Nc2nc(-c3cccnc3)cs2)ccc1C(F)(F)F", "note": "[Cmp 69, N-(3-(pentyloxy)-4-(trifluoromethyl)phenyl)-4-(pyridin-3-yl)thiazol-2-amine]", "EC50": "< 1000"}, {"smiles": "Fc1sc(Nc2ccc(Oc3ccccc3)c(C(F)(F)F)c2)nc1-c1cccnc1", "note": "[Cmp 70, 5-fluoro-N-(4-phenoxy-3-(trifluoromethyl)phenyl)-4-(pyridin-3-yl)thiazol-2-amine]", "EC50": "< 1000"}, {"smiles": "CCCCCCCCOc1cc(Nc2nc(-c3cnc(OC)nc3)cs2)ccc1C(F)(F)F", "note": "[Cmp 71, 4-(2-methoxypyrimidin-5-yl)-N-(3-(octyloxy)-4-(trifluoromethyl)phenyl)thiazol-2-amine]", "EC50": "< 1000"}, {"smiles": "CCCCCOc1cc(Nc2nc(-c3cnc(OC)nc3)cs2)ccc1C(F)(F)F", "note": "[Cmp 72, 4-(2-methoxypyrimidin-5-yl)-N-(3-(pentyloxy)-4-(trifluoromethyl)phenyl)thiazol-2-amine]", "EC50": "< 1000"}, {"smiles": "Cc1ccc(CCCCCc2ccc(Nc3nc(-c4cccnc4)cs3)cc2C(F)(F)F)cc1", "note": "[Cmp 73, 4-(pyridin-3-yl)-N-(4-(5-p-tolylpentyl)-3-(trifluoromethyl)phenyl)thiazol-2-amine]", "EC50": "< 1000"}, {"smiles": "COc1ncc(-c2csc(Nc3ccc(CCCCCc4ccc(C)cc4)c(C(F)(F)F)c3)n2)cn1", "note": "[Cmp 74, 4-(2-methoxypyrimidin-5-yl)-N-(4-(5-p-tolylpentyl)-3-(trifluoromethyl)phenyl)thiazol-2-amine]", "EC50": "< 1000"}, {"smiles": "CCCCCCCCOc1cc(Nc2nc(-c3ccc(F)cc3)cs2)ccc1C(F)(F)F", "note": "[Cmp 75, 4-(4-fluorophenyl)-N-(3-(octyloxy)-4-(trifluoromethyl)phenyl)thiazol-2-amine]", "EC50": "< 1000"}, {"smiles": "CCCCCOc1cc(Nc2nc(-c3ccc(F)cc3)cs2)ccc1C(F)(F)F", "note": "[Cmp 76, 4-(4-fluorophenyl)-N-(3-(pentyloxy)-4-(trifluoromethyl)phenyl)thiazol-2-amine]", "EC50": "< 1000"}, {"smiles": "CCCCCOc1cc(Nc2nc(-c3cnc(OC)nc3)c(F)s2)ccc1C(F)(F)F", "note": "[Cmp 77, 5-fluoro-4-(2-methoxypyrimidin-5-yl)-N-(3-(pentyloxy)-4-(trifluoromethyl)phenyl)thiazol-2-amine]", "EC50": "< 1000"}, {"smiles": "CCCCCCCCOc1cc(Nc2nc(-c3cccnc3)c(F)s2)ccc1C(F)(F)F", "note": "[Cmp 78, 5-fluoro-N-(3-(octyloxy)-4-(trifluoromethyl)phenyl)-4-(pyridin-3-yl)thiazol-2-amine]", "EC50": "< 1000"}, {"smiles": "CCCCCOc1cc(Nc2nc(-c3cccnc3)c(F)s2)ccc1C(F)(F)F", "note": "[Cmp 79, 5-fluoro-N-(3-(pentyloxy)-4-(trifluoromethyl)phenyl)-4-(pyridin-3-yl)thiazol-2-amine]", "EC50": "1000 to 10000"}, {"smiles": "CCCCCCCCc1cc(Nc2nc(-c3cccnc3)cs2)cc(C(F)(F)F)c1", "note": "[Cmp 80, N-(3-octyl-5-(trifluoromethyl)phenyl)-4-(pyridin-3-yl)thiazol-2-amine]", "EC50": "< 1000"}, {"smiles": "CC(=O)c1cc(Nc2nc(-c3cccnc3)c(F)s2)ccc1Oc1ccccc1", "note": "[Cmp 81, 1-(5-(5-fluoro-4-(pyridin-3-yl)thiazol-2-ylamino)-2-phenoxyphenyl)ethanone]", "EC50": "< 1000"}, {"smiles": "CC(F)(F)c1cc(Nc2nc(-c3cccnc3)c(F)s2)ccc1Oc1ccccc1", "note": "[Cmp 82, N-(3-(1,1-difluoroethyl)-4-phenoxyphenyl)-5-fluoro-4-(pyridin-3-yl)thiazol-2-amine]", "EC50": "< 1000"}, {"smiles": "CC(=O)c1cc(Nc2nc(-c3cccnc3)cs2)ccc1Oc1ccc(Cl)cc1", "note": "[Cmp 84, 1-(2-(4-chlorophenoxy)-5-(4-(pyridin-3-yl)thiazol-2-ylamino)phenyl)ethanone]", "EC50": "< 1000"}, {"smiles": "CC(=O)c1cc(Nc2nc(-c3cccnc3)cs2)ccc1Oc1ccccc1", "note": "[Cmp 85, 1-(2-phenoxy-5-(4-(pyridin-3-yl)thiazol-2-ylamino)phenyl)ethanone]", "EC50": "< 1000"}, {"smiles": "COc1ncc(-c2csc(Nc3ccc(Oc4ccccc4)c(C(C)=O)c3)n2)cn1", "note": "[Cmp 86, 1-(5-(4-(2-methoxypyrimidin-5-yl)thiazol-2-ylamino)-2-phenoxyphenyl)ethanone]", "EC50": "< 1000"}, {"smiles": "CCc1ccc(Oc2ccc(Nc3nc(-c4cnc(OC)nc4)cs3)cc2C(C)=O)cc1", "note": "[Cmp 87, 1-(2-(4-ethylphenoxy)-5-(4-(2-methoxypyrimidin-5-yl)thiazol-2-ylamino)phenyl)ethanone]", "EC50": "< 1000"}]}]}
